Common to all, as to assay: NCI anticancer screen, dose series, 48 h
For assay [1], the system named is HCT-15 colon.
The subject of assay [2] is HS 578T breast.
In assay [3] the test system is HT29 colon.
Assay [4] relates to LOX IMVI melanoma.
Assay [5] relates to MDA-MB-231 breast.
Assay [6] has as its system MOLT-4 leukemia.
The subject of assay [7] is OVCAR-8 ovarian.
Assay [8] deals with SF-268 CNS.
Assay [9] has as its system SK-MEL-2 melanoma.
The test system of assay [10] is SN12C renal.
Assay [11] deals with T-47D breast.

Each structure is given as a SMILES string.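 Following 48 hours of exposure in 96-well plates, responses at five concentrations were used to interpolate endpoints linearly. At the TGI there is no net growth.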 A value given as a limit tells only on which side of the number the result lay.

Here are results for 12 molecules from PubChem BioAssay (NCI).

For `CCOC(=O)CN1C(=O)c2c(NC(=O)C(=O)O)cccc2S1(=O)=O`, the TGI in assay [1], in assay [2], in assay [3], in [4], in assay [5] and in [6] was more than 100 µM throughout. Also, the TGI in [7], in assay [8], in assay [9], in assay [10] and in assay [11] was more than 100 µM throughout.
Consider `CC(C)C1CCC(=O)CC1CCCCC1CC(=O)CC1O[Si](C)(C)C(C)(C)C` (configuration not stated), for which the TGI is 21.4 µM in assay [1]; 9.89 µM in assay [2]; 10.3 µM in assay [3]; 9.28 µM in assay [4]; 40.5 µM in assay [5]; 5.5 µM in [6]. The TGI worked out at 13 µM in assay [7]; 7.74 µM in [8]; 24.5 µM in [9]; 22.3 µM in assay [10]; 46.9 µM in assay [11].
In the case of `Cc1cnc2c(c1)C(=O)N(c1ccc(Br)cc1)S2(=O)=O`, the TGI in assay [1], in assay [2], in assay [3], in assay [4], in [5] and in assay [6] was more than 100 µM throughout. For the same molecule, the TGI in assay [7], in [8], in assay [9], in assay [10] and in assay [11] was more than 100 µM in each case.
For the molecule `CCOC(=O)c1c(Br)c(-c2ccc([N+](=O)[O-])cc2)c(Br)n1C`, the TGI in assay [1], in assay [2], in assay [3], in assay [4], in assay [5] and in assay [6] was more than 10 µM in each case. Besides, the TGI in [7], in [8], in assay [9], in assay [10] and in assay [11] was more than 10 µM in each case.
Regarding `C[N+]1(C)C/C(=C\C=C\c2ccccc2)C(=O)/C(=C/C=C/c2ccccc2)C1`, the TGI in [1] is more than 100 µM; in assay [2] it was more than 61.4 µM; in assay [3], 26.6 µM; in assay [4], 52.1 µM; in assay [5], 36.1 µM; in assay [6], 16.6 µM. Further, the TGI in assay [7] turned out to be 53.1 µM; in [8] it was 43.7 µM; in [9], 64.2 µM; in assay [10], 62.5 µM; in assay [11], 47.4 µM.
With `Cn1c2ccccc2c(=NNc2ccc(S(=O)(=O)N=C(N)N)cc2)c2ccccc21`, the TGI in [1] was 36.7 µM; in [2], 49.7 µM; in assay [3], 14.5 µM; in assay [4], 16.9 µM; in [5], 32.4 µM; in assay [6], 13.4 µM. Also, the TGI in assay [7] amounted to 26.4 µM; in [8], 22.1 µM; in [9], 28 µM; in assay [10] it was 21.9 µM; in [11] it was 35.6 µM.
In the case of `COc1ccc(C(SCCO)(c2ccc(OC)cc2)c2ccc(OC)cc2)cc1`, the TGI in assay [1] is 44.6 µM; in assay [2], 44.7 µM; in assay [3], 46 µM; in assay [4] it was 27.1 µM; in [5] it was 46.6 µM; in assay [6], 56.4 µM. The TGI in [7] came to 37.7 µM; in assay [8], 43.9 µM; in assay [9], 31.7 µM; in assay [10] it was 33.9 µM; in assay [11], 33.7 µM.
Regarding `CC(C)NC(=O)OCc1c(COC(=O)NC(C)C)c(-c2cc[n+](COC(=O)Cc3ccccc3)cc2)n2c1CCC2`, the TGI in assay [1], in [2], in assay [3], in [4], in [5] and in assay [6] was more than 100 µM throughout. Besides, the TGI in assay [7], in [8], in [9], in [10] and in assay [11] was more than 100 µM each time.
`Cc1ccc(C(CCO)CCO)nc1`: the TGI in [1], in assay [2], in assay [3], in assay [4], in assay [5] and in assay [6] was more than 100 µM throughout. Also, the TGI in assay [7], in assay [8], in assay [9], in [10] and in assay [11] was more than 100 µM in each case.
Regarding `O=c1[nH]nc(-c2ccccc2)n1-n1cccc1`, the TGI in [1], in assay [2], in [3], in [4], in assay [5] and in [6] was more than 100 µM each time. Besides, the TGI in assay [7], in assay [8], in assay [9], in assay [10] and in assay [11] was more than 100 µM each time.
In the case of `O=C(NCCCN1CCN(CCCNC(=O)c2cc(-c3ccccc3)nc3ccccc23)CC1)c1cc(-c2ccccc2)nc2ccccc12`, the TGI in assay [1] was more than 100 µM; in assay [2] it was 37.1 µM; in [3], more than 39.7 µM; in assay [4], 10.6 µM; in assay [5] it was more than 62.6 µM; in [6] it was more than 66.1 µM. Further, the TGI in [7] is 29.7 µM; in assay [8], more than 60.2 µM; in assay [9], 36.9 µM; in assay [10], 43 µM; in assay [11], 33.9 µM.
In the case of `COc1cc2c(cc1OC)-c1cc3cc(OC)c(OC)cc3c(C)[n+]1CC2` (tested in a mixture with another compound), the TGI was more than 100 µM in [1]; more than 100 µM in [2]; more than 100 µM in assay [3]; more than 100 µM in assay [4]; more than 100 µM in [5]; 48.1 µM in assay [6]. In addition, the TGI in [7] is more than 100 µM; in [8], more than 100 µM; in assay [9], more than 100 µM; in [10], more than 100 µM; in assay [11] it was 25.2 µM.
